Reference: paper PMC9323974, “Palladium(II) Complexes of Substituted Salicylaldehydes: Synthesis, Characterization and Investigation of Their Biological Profile” (Pharmaceuticals, 2022)
Read-outs that look alike come from different tables or passages of the source.

Key:
[1] = ABTS radical cation scavenging; details: compound 0.1 mM
Protocol: (§1) S1 Antioxidant biological assay
(§2) The antioxidant activity of the compounds was evaluated via their ability to scavenge in […]
(§3) vitro free radicals such as DPPH and ABTS and to reduce H2O2. […]
S1.2 Assay of radical cation ABTS–scavenging activity
The ABTS assay was performed to determine the activity of the compounds to scavenge the […]
radical cation ABTS. Initially, a water solution of ABTS was prepared (2 mM). ABTS radical cation […]
(ABTS+·) was produced by the reaction of ABTS stock solution with potassium persulfate (0.17 […]
mM) and the mixture was stored in the dark at room temperature for 12–16 h before its use. The […]
ABTS was oxidized incompletely because the stoichiometric reaction ratio of ABTS and potassium […]
persulfate is 1:0.5. The absorbance became maximal and stable only after more than 6 h of reaction […]
although the oxidation of the ABTS started immediately. The radical was stable in this form for […]
more than 2 days when allowed to stand in the dark at room temperature. Afterwards, the ABTS+· […]
solution was diluted in ethanol to an absorbance of 0.70 at 734 nm and 10 μL of diluted compounds or standards (0.1 mM) in DMSO were added. The absorbance was recorded out exactly 1 min after […]
initial mixing [S1]. The ABTS radical scavenging activity was expressed as the percentage inhibition of the absorbance of the initial ABTS solution (ABTS%). […]

BSA = target: T1, BSA (Bos taurus, UniProt P02769); experiment: BSA fluorescence quenching; assay type: binding, bovine; details: for ΔΙ/Ιο (%) BSA fluorescence quenching: BSA 3 μM; for K BSA-binding constant: Scatchard; for relative BSA-fluorescence emission intensity, % of the initial: final value
T1 construct: purchased Sigma-Aldrich Co
Protocol: S4 Interaction with serum albumins
S4.1 Study of the affinity for serum albumins
The albumin–binding study for the compounds was carried out by fluorescence emission quenching experiments using BSA (3 μM) or HSA (3 μM) in buffer solution (15 mM trisodium citrate and 150 mM NaCl at pH 7.0). The tested compounds were used as quenchers with gradually increasing concentrations to monitor the quenching of the emission intensity of tryptophan residues of BSA at 345 nm or HSA at 340 nm [S6]. The fluorescence emission spectra were recorded between 300–500 nm with excitation wavelength of 295 nm. All the experiments were conducted at room temperature. The fluorescence spectra of the compounds were recorded under the same experimental conditions and presented a low–intensity emission band in the region 395–415 nm.
Consequently, the SA fluorescence emission spectra were modified properly, by subtracting the spectra of the compounds, and quantitative studies followed.
The extent of the inner–filter effect can be roughly estimated with the following formula: […]
where Icorr= corrected intensity, Imeas= the measured intensity, c = the concentration of the quencher, d = the cuvette length (1 cm), ε(λexc) and ε(λem) = the ε of the quencher at the excitation and the emission wavelength, respectively, as calculated from the UV –vis spectra of the complexes [S 8].
The interaction of the quencher (i.e. compounds) with serum albumins [S6] was studied through the Stern–Volmer and Scatchard equations [S6] and corresponding graphs. The values of the respective Stern–Volmer constant KSV (M–1), the quenching constant k q (M–1s–1), the SA– binding constant K (M–1) and the number of binding sites per albumin (n) were calculated.
According to Stern–Volmer quenching equation [S6] (eq. S2), where I 0 = the initial tryptophan fluorescence intensity of SA, I = the tryptophan fluorescence intensity of SA after the addition of the quencher, kq = the quenching rate constants of SA, K SV = the dynamic quenching constant, τ0 = the average lifetime of SA without the quencher, [Q] = the concentration of the quencher), the Stern –Volmer constant (KSV, M–1) can be obtained by the slope of the diagram I0/I versus [Q]. Taking τ0 = 10–8 s as fluorescence lifetime of tryptophan in SA [S2], the quenching constant (kq, M–1s–1) is calculated from equation S3.
From the Scatchard equation (eq. S5) [S6]: […]
(1 picture or pasted object on this page, not shown here) […]
where n = the number of binding sites per albumin and K = the SA–binding constant. The K constant (M−1) is calculated from the slope in plots (ΔI/I0)/[Q] versus (ΔI/I0) and n is given by the ratio of y intercept to the slope [S9]. […]

[2] = Reduction of hydrogen peroxide; details: compound 0.1 mM
Protocol: as §1, §2, §3
S1.3 Reduction of hydrogen peroxide
The ability of the compounds to reduce hydrogen peroxide (H2O2) was estimated according […]
to the method described in the literature [S2]. The reaction mixture contained 20 μL of each of the […]
tested compounds (0.1 mM) and 5 μL H 2O2 solution (40 mM) in phosphate buffer (50 mM, pH 7.4).
The absorbance was measured at 230 nm after 10 min. The antioxidant activity (reduction of […]

HSA = target: T2, HSA (Homo sapiens, UniProt P02768); experiment: Competitive HSA-fluorescence studies with warfarin and ibuprofen; assay type: binding
T2 construct: purchased Sigma-Aldrich Co

[3] = read-out: HSA-binding constant K, Marker: Ibuprofen, ibuprofen
[4] = read-out: HSA-binding constant K, Marker: Warfarin, warfarin

T1 sequence (P02769 25-607): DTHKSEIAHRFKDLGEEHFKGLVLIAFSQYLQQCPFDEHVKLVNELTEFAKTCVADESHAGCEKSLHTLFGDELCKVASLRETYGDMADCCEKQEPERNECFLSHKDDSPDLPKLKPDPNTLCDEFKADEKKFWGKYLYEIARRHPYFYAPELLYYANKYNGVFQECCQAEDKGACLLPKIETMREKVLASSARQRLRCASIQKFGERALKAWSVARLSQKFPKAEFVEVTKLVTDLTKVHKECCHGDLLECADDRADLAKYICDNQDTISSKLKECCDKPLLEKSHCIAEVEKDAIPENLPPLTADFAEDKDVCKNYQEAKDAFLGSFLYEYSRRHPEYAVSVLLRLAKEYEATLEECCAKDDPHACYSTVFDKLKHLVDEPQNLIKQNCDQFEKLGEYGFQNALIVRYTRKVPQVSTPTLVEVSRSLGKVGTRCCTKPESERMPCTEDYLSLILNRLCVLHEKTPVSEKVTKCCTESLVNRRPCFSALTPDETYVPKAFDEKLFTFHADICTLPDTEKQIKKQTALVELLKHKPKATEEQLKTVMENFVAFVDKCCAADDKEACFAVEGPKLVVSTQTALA
T2 sequence (P02768 25-609): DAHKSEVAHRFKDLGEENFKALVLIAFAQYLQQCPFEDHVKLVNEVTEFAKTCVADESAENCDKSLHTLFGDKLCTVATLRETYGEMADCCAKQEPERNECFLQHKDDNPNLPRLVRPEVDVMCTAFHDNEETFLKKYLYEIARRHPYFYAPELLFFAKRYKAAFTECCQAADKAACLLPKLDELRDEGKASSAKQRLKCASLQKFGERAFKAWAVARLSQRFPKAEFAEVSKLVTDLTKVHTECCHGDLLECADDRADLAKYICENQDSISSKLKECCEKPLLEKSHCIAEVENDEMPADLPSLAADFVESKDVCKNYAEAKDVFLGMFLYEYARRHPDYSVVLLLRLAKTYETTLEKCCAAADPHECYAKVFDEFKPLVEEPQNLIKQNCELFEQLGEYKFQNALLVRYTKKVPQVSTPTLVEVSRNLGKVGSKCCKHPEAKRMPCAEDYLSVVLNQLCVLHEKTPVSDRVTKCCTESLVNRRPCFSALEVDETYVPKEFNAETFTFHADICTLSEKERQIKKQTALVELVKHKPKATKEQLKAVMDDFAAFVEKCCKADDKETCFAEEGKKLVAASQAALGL

Row | Compound | ABTS% [1] [%] | Kd (BSA) [µM] | kq BSA-quenching constant (BSA) | H2O2% [2] [%] | Kd (HSA) [µM] | Kd (HSA; [3]) [µM] | Kd (HSA; [4]) [µM] | ΔΙ/Ιο (%) BSA fluorescence quenching (BSA) [%] | K BSA-binding constant (BSA) | relative BSA-fluorescence emission intensity, % of the initial (BSA) [%] | HSA-binding constant K, Marker: Ibuprofen (HSA; ibuprofen) | HSA-binding constant K, No Marker (HSA) | HSA-binding constant K, Marker: Warfarin (HSA; warfarin) | HSA drug site preference (HSA; drug site I (warfarin) vs II (ibuprofen))
1 | CCN(CC)c1ccc(C=O)c(O)c1 [4-Et2N-saloH, 4-diethylamino-salicylaldehyde, reference compound] | 25.84 ± 0.34 | 2.4 | 1.41 (±0.06) × 10^13 M^−1 s^−1 | 76.57 ± 0.71 | 2.48 | 23.8 | 4.39 | – | – | – | – | – | – | –
2 | COc1ccc(C=O)c(O)c1 [4-OMe-saloH, 4-methoxy-salicylaldehyde, reference compound] | 40.83 ± 0.44 | – | – | 94.24 ± 0.67 | 10.3 | 21.3 | 60.2 | – | – | – | – | – | – | –
3 | O=Cc1cc(F)ccc1O [5-F-saloH, 5-fluoro-salicylaldehyde, reference compound] | 19.57 ± 0.58 | 23.2 | 1.98 (±0.08) × 10^12 M^−1 s^−1 | 71.84 ± 0.95 | 21.5 | 16.1 | 33.1 | – | – | – | – | – | – | –
4 | CCN(CC)c1ccc(C=O)c([O][Pd][O]c2cc(N(CC)CC)ccc2C=O)c1 [Complex 1, [Pd(4-Et2N-salo)2]] | 97.05 ± 0.48 | – | 5.72 (±0.44) × 10^13 M^−1 s^−1 | 18.19 ± 0.29 | – | – | – | 92.9 | 1.08 (±0.06) × 10^5 M^−1 | 7.2 | 1.86 (±0.12) × 10^5 M^−1 | 1.25 (±0.06) × 10^5 M^−1 | 6.89 (±0.28) × 10^4 M^−1 | –
5 | O=Cc1cc(Br)cc(Br)c1[O][Pd][O]c1c(Br)cc(Br)cc1C=O [Complex 2, [Pd(3,5-diBr-salo)2]] | 50.46 ± 0.91 | – | 2.11 (±0.08) × 10^14 M^−1 s^−1 | 49.21 ± 0.32 | – | – | – | 97.5 | 1.50 (±0.06) × 10^6 M^−1 | 2.5 | 3.23 (±0.13) × 10^5 M^−1 | 4.12 (±0.15) × 10^5 M^−1 | 1.43 (±0.09) × 10^5 M^−1 | –
6 | O=Cc1cc(Cl)cc(Cl)c1[O-].O=Cc1cc(Cl)cc(Cl)c1[O-].[Pd+2] [Complex 3, [Pd(3,5-diCl-salo)2]] | 63.45 ± 0.38 | – | 1.11 (±0.04) × 10^14 M^−1 s^−1 | 51.26 ± 0.70 | – | – | – | 97.2 | 7.82 (±0.24) × 10^5 M^−1 | 2.8 | 3.78 (±0.14) × 10^5 M^−1 | 4.10 (±0.17) × 10^5 M^−1 | 2.47 (±0.09) × 10^5 M^−1 | –
7 | O=Cc1cc(F)ccc1[O-].O=Cc1cc(F)ccc1[O-].[Pd+2] [Complex 4, [Pd(5-F-salo)2]] | 63.30 ± 0.53 | – | 2.24 (±0.14) × 10^13 M^−1 s^−1 | 48.31 ± 0.67 | – | – | – | 85.7 | 8.79 (±0.13) × 10^4 M^−1 | 14.3 | 1.10 (±0.08) × 10^5 M^−1 | 1.38 (±0.05) × 10^5 M^−1 | 8.98 (±0.82) × 10^4 M^−1 | –
8 | COc1ccc(C=O)c([O-])c1.COc1ccc(C=O)c([O-])c1.[Pd+2] [Complex 5, [Pd(4-OMe-salo)2]] | 96.66 ± 0.46 | – | 2.17 (±0.09) × 10^14 M^−1 s^−1 | 58.38 ± 0.54 | – | – | – | 97.2 | 9.18 (±0.27) × 10^5 M^−1 | 2.8 | 1.45 (±0.17) × 10^4 M^−1 | 3.56 (±0.12) × 10^5 M^−1 | 1.00 (±0.18) × 10^5 M^−1 | did not seem to show firmly a selectivity
